Measurements as given in patent publication US20080167376A1, “Methods and products which utilize N-acyl-L-aspartic acid” (DMI BIOSCIENCES, INC., priority 2003, published 2008).

Tests used:
[1] = system: PGE2 production in ionomycin-stimulated STTG cells; test: Prostaglandin E2 assay (PGE2 EIA) in ionomycin-stimulated STTG cells; assay type: cell-based, human; settings: for decrease in PGE2 release / effect on total PGE2 release: FIG. 2
Experimental: FIG. 1. Percent inhibition of prostaglandin E2 (PGE2) production in ionomycin-stimulated STTG cells. PGE2 production was assayed in ionomycin-stimulated STTG cells treated with N-acetyl-L-aspartate (NAA), aspirin (Asp) or dexamethasone (Dex) using a PGE2 enzyme immunoassay described in Example 1. Cells were pre-incubated for 1 hour with NAA, Asp or Dex and then stimulated with 1 μM ionomycin at 37° C., 10% CO2 for 24 hours. Percent inhibition of PGE2 production was measured compared to ionomycin-stimulated STTG cells in the absence of NAA, Asp or Dex. Data represent mean ±SD of three separate experiments. Asterisks indicate a significant difference between untreated, ionomycin-stimulated STTG cells and treated, ionomycin-stimulated STTG cells: *p<0.01. Iono=ionomycin.
FIG. 2. Effect of glutamate receptor antagonists and NAA on PGE2 release in STTG cells stimulated with ionomycin. PGE2 production was assayed in ionomycin-stimulated STTG cells treated with NAA or potential glutamate receptor antagonists (AP-4 and GDE) using a PGE2 enzyme immunoassay described in Example 1. Cells were pre-incubated for 1 hour with NAA or the potential glutamate receptor antagonists and then cells were stimulated with 1 μM ionomycin at 37° C., 10% CO2 for 24 hours. Percent inhibition of PGE2 production was measured compared to ionomycin-stimulated STTG cells in the absence of NAA or potential glutamate receptor antagonists. Data represent mean ±SD of three separate experiments. Asterisks indicate a significant difference between untreated, ionomycin-stimulated STTG cells and treated, ionomycin-stimulated STTG cells: *p<0.01. AP-4=L-2-amino-4-phosphonobutyric acid, and GDE=L-glutamic acid diethyl ester.
Prostaglandin E2 Assay. Human STTG astroglial cells (CRL-1718, American […], Rockville, Mass.) were grown in 75 cm^2 flasks (10% CO2, 37° C.) containing AGM medium (BioWhittaker, Walkersville, Md.) to near confluency (>90%) prior to subculturing with trypsin/EDTA. Cells were plated on a 24-well plate at 50,000 cells/well and incubated for two days to near confluency prior to dosing with inhibitors. N-Acetyl aspartate (NAA, Sigma-Aldrich, St. Louis, Mo.) was dissolved in AGM medium and brought back to a pH of 7.4. Stock solutions of aspirin were dissolved in DMSO and then diluted in culture medium. DMSO concentrations were never >0.5% in the medium bathing the cells. Cells were then dosed with potential prostaglandin E2 (PGE2) inhibitors (NAA, L-2-Amino-4-phosphonobutyric acid [L-AP-4, Sigma-Aldrich, St. Louis, Mo.], L-glutamic acid diethyl ester [GDE, generous gift from Nagaraja K. R. Rao, DMI Synthesis UK Ltd.], aspirin, or dexamethasone). After a 1-hour incubation, the cells were then stimulated with 1 μM ionomycin (Sigma-Aldrich, St. Louis, Mo.) for 24 hours at 37° C. Total volume per well was 1 mL. Then, 0.5 mL of culture medium was removed from each well and immediately assayed for PGE2 using the Prostaglandin E2 enzyme immunoassay (EIA) system (Amersham, Piscataway, N.J.). The remaining medium containing the cells was assayed for cell viability using cell titer reagent (G358A, Promega, Madison, Wis.).

[2] = system: activated NFκB in IL-1β-stimulated STTG cells; test: NFκB assay (ELISA-based) in IL-1β-stimulated STTG cells; assay type: cell-based, human; settings: 1 ng/ml IL-1β, 24 h, FIG. 4
Experimental: FIG. 4. Effect of NAA on NFκB levels in STTG cells stimulated with IL-1. Cells were dosed with NAA and immediately stimulated with 1 ng/ml IL-1 for 24 hours at 37° C., 10% CO2. Cells were lysed, and 10 μg of total protein was assayed for activated NFκB levels using an ELISA-based method. Data represent mean ±SD of three separate experiments. Percentages are percent of inhibition of production of activated NFκB. Asterisks indicate a significant difference between untreated, IL-1β-stimulated STTG cells and NAA-treated, IL-1β-stimulated STTG cells: *p<0.005.
NFκB Assay. STTG cells were treated with NAA and stimulated immediately with 1 ng/ml IL-1β. After a 24-hour incubation, cells were lysed and total protein was quantitated using the BCA™ Protein Assay Kit (Pierce, Rockford, Ill.). Then, 10 μg of protein lysate was assayed for NFκB using the TransAM™ NFκB Family Transcription Factor Assay Kit (Catalog No. 43296, Active Motif, Carlsbad, Calif.).
Effect of NAA on NFκB activation. Activated NFκB was quantitated using a 96-well plate coated with an oligonucleotide that contains an NFκB consensus-binding site. This site specifically binds activated NFκB contained in cell extracts.

[3] = system: COX-2 protein in STTG cells; test: Western blot of total COX-2 protein in STTG cells; assay type: cell-based, human; settings: 24 h, 200 μM aspirin, 10 mM NAA (FIG. 3); for effect on total amount of COX-2 protein: STTG cells stimulated with 1 or 2 ng/ml IL-1β; for effect on resting COX-2 protein: unstimulated STTG cells
Experimental: FIG. 3. Representative Western blot for total COX-2 protein in IL-1β-stimulated STTG cells treated with NAA and aspirin. Cells were incubated for 24 hours at 37° C., 10% CO2. Cells were dosed as follows: untreated (lane 1), 200 μM aspirin (lane 2), 10 mM NAA (lane 3), 1 ng/ml IL-1β (lane 4), 2 ng/ml IL-1β (lane 5), 1 ng/ml IL-1β+200 μM aspirin (lane 6), 2 ng/ml IL-1β+200 μM aspirin (lane 7), 1 ng/ml IL-1β+10 mM NAA (lane 8), or 2 ng/ml IL-1β+10 mM NAA (lane 9). Cells were lysed and COX-2 protein was immunoprecipitated overnight (1:500 goat anti-human COX-2) from 400 μg total lysate protein. Immunoprecipitate was loaded on 4-20% tris-glycine gel and transferred overnight onto nitrocellulose membrane. Total COX-2 protein was quantitated using a goat anti-human COX-2 antibody (1:100) and 1:5,000 rabbit anti-goat IgG. The membrane was visualized by chemiluminescence.
Western Blot of COX-2. STTG cells were treated with either NAA or aspirin and immediately stimulated with 1 or 2 ng/ml IL-1β (Sigma-Aldrich, St. Louis, Mo.). After a 24-hour incubation at 37° C. (10% CO2), cells were lysed and total protein was quantitated by BCA (Pierce, Rockford, Ill.). Then, 0.5 mg lysate was immunoprecipitated using 1:500 goat anti-human COX-2 (Santa Cruz Biotechnology, Santa Cruz, Calif.) and Protein AG beads (Pierce, Rockford, Ill.) overnight at 4° C. Samples were loaded on a 4-20% Tris-Glycine gel (Invitrogen, Carlsbad, Calif.) and transferred to a nitrocellulose membrane overnight. The membrane was blocked with 5% Blotto (Santa Cruz Biotechnology, Santa Cruz, Calif.), and COX-2 was detected using 1:100 goat anti-human COX-2 (Santa Cruz Biotechnology, Santa Cruz, Calif.) and 1:5,000 rabbit anti-goat IgG HRP (Santa Cruz Biotechnology, Santa Cruz, Calif.). The membrane was visualized using ECL (Amersham, Piscataway, N.J.) and exposed to X-ray film.

COX-2 = target: T1, COX-2 (Homo sapiens, UniProt P35354); test: COX-2 activity assay (PGE2 EIA system); assay type: biochemical; settings: concentrations up to 20 mM; 0.05 units COX-2, 1 μM arachidonic acid; data not shown
T1 construct: purchased Oxford Biomedical, Oxford, Mich
T1 sequence (P35354 18-604): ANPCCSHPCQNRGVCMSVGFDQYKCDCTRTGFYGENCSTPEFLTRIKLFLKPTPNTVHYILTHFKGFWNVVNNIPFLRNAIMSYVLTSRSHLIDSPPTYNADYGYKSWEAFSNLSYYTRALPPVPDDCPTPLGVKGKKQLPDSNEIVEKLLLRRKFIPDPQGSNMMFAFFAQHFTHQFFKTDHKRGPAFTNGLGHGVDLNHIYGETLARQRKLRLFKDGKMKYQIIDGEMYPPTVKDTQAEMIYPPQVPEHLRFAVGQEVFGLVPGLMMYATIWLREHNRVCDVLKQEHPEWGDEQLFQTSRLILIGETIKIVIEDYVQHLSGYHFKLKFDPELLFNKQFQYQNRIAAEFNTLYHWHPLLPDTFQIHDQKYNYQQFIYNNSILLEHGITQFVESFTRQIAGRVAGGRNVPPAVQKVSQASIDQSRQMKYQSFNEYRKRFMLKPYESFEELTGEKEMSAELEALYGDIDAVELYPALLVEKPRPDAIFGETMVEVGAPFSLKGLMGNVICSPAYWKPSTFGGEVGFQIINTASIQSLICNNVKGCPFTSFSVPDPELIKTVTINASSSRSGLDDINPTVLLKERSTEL
Experimental: COX-2 Activity Assay. Modifying the method of Ouellet and co-workers (Proc. Natl. Acad. Sci. USA, 98:14583-14588 (2001)), COX-2 activity was determined using the PGE2 EIA system. Briefly, COX-2 (Oxford Biomedical, Oxford, Mich.) was incubated at 37° C. for 5 minutes with arachidonic acid (AA), 500 μM phenol, and 1 μM hematin in a 100 mM phosphate buffer (pH 6.5). The reaction was stopped with a solution containing dH2O/MeOH/1 M citric acid (30:4:1). After optimization of COX-2 and AA, 0.05 units of COX-2 per incubation and 1 μM of AA were determined to be optimal. Varying concentrations of NAA and aspirin (pH 6.5) were pre-incubated with COX-2, hematin, and phenol for 15 minutes at 37° C. prior to AA addition. The reaction was stopped after 5-minute incubation with AA. PGE2 levels were determined using PGE2 EIA system as described.
Effect of NAA on COX-2 activity and mRNA. To determine if NAA was inhibiting the cyclooxygenase enzyme directly, a COX-2 activity assay was developed using the PGE2 EIA system. After optimizing for COX-2 and arachidonic acid (AA), a concentration of 0.05 units/incubation of COX-2 and 1 μM of AA was determined to be optimal.

[4] = system: COX-2 mRNA in STTG astroglial cells; test: RT-PCR of COX-2 in STTG cells; assay type: cell-based, human; settings: 5 and 10 mM, data not shown
Experimental: RT-PCR of COX-2. STTG cells were grown to near confluency on 25 cm^2 cell culture flasks. Cells were dosed with 5 or 10 mM NAA and incubated for 4 or 24 hours at 37° C., 10% CO2. RNA was isolated using Rneasy Mini Kit (Qiagen, Valencia, Calif.) and quantitated using A260/A280 assay. Then, 2 μg of RNA was converted to cDNA using the Omniscript Reverse Transcriptase Kit (Qiagen, Valencia, Calif.). PCR was next performed using HotStarTaq Master Mix (Qiagen, Valencia, Calif.). COX-2 forward ([…] [SEQ ID NO:1]) and reverse primers ([…] [SEQ ID NO:2]) were obtained from Qiagen (Valencia, Calif.) and used at a concentration of 0.5 μM. The PCR thermal cycler program consisted of: 1) 1 denaturation cycle of 15 minutes at 95° C.; 2) 30 cycles of 94° C. (30 sec denaturation), 55° C. (30 sec annealing), and 72° C. (30 sec elongation); and 3) 1 elongation cycle of 10 minutes at 72° C. PCR product was then loaded on a 2% (w/v) agarose gel and stained with ethidium bromide.

[5] = 5 mM, ionomycin-stimulated STTG cells
[6] = 10 mM, ionomycin-stimulated STTG cells
[7] = ionomycin-stimulated STTG cells, result in words

SMILES	decrease in PGE2 release [1, 5]	decrease in PGE2 release [1, 6]	effect on total PGE2 release [1, 7]	effect on total amount of COX-2 protein [3]	effect on resting COX-2 protein [3]	also measured
CCOC(=O)CC[C@H](N)C(=O)OCC [GDE, L-glutamic acid diethyl ester, reference compound]	40%	60%	did decrease			
N[C@@H](CCP(=O)(O)O)C(=O)O [L-AP-4, L-2-amino-4-phosphonobutyric acid, reference compound]			did decrease			
CC(=O)N[C@@H](CC(=O)O)C(=O)O [NAA, N-acetyl-L-aspartic acid]	60%	90%		decreased	no effect	decrease in NFκB production (activated NFκB) ([2]; 10 mM): 17.5%; decrease in NFκB production (activated NFκB) ([2]; 20 mM): 40%; decrease in PGE2 production ([1]; 5 mM, 1 h pre-incubation, 1 μM ionomycin 24 h, STTG cells, FIG. 1): 56%; decrease in PGE2 production ([1]; 10 mM, 1 h pre-incubation, 1 μM ionomycin 24 h, STTG cells, FIG. 1): 76%; inhibition at 20000 µM ([1]; Homo sapiens, 20 mM, 1 h pre-incubation, 1 μM ionomycin 24 h, STTG cells, FIG. 1, read-out: decrease in PGE2 production (inhibition)): > 95%; effect on COX-2 activity (COX-2): no effect; effect on total COX-2 mRNA [4]: did not decrease
CC(=O)Oc1ccccc1C(=O)O [aspirin, reference compound]				decreased	decreasing effect	inhibition of cyclooxygenases as evidenced by lack of PGE2 production ([1]; ionomycin-stimulated STTG cells, FIG. 1, result in words): complete inhibition
